Results published in patent publication US20190070113A1, “Treating Ephrin Receptor A2 (Epha2) Positive Cancer with Targeted Docetaxel-Generating Nano-Liposome Compositions” (Merrimack Pharmaceuticals, Inc., priority 2016, published 2019).
Values belong to the compound of their own block, whether it stands above or below them.

Experiments:
[1] = mice; i.p. dosing q3d; most protocols list; cited from earlier work
[2] = Short-term tolerance test of 46scFv-ILs-DTXp3 with Gemcitabine or Carboplatin; format: in vivo, CD-1 female mice; conditions: for histopathology: individual hepatocyte necrosis: carboplatin combo and mono, gemcitabine combo with 46scFv-ILs-DTXp3 100 mpk; for histopathology: extramedullary hematopoiesis in the spleen: carboplatin mono and combo, Gemcitabine combo with 46scFv-ILs-DTXp3 100 mpk
Procedure: Gemcitabine and Carboplatin are chemotherapeutic agents likely to be combined with 46scFv-ILs-DTXp3 in the clinic. Gemcitabine alone is well tolerated in mice; most protocols list an MTD for i.p. dosing around 240 mpk q3d. […] The stock concentration of 46scFv-ILs-DTXp3 was 11.09 mg/ml. Carboplatin was purchased from Hospira Inc and used at a stock concentration of 10 mg/ml. Gemcitibine was purchased from Sun Pharam and used at a stock concentration of 38 mg/ml.
CD-1 female mice (7-8 week old) were obtained from Charles River. During the treatment phase mice body weight was monitored daily. In order to assess the effect of drug scheduling on tolerability, animals were treated with a single dose of 46scFv-ILs-DTXp3 followed by a dose of either carboplatin or gemcitabine at various dose levels and starting at different timepoints post 46scFv-ILs-DTXp3 treatment (Table 3). Additionally, a single treatment group treated with carboplatin or gemcitabine was added.
At study end (10 days after last drug dose, i.e. day 10 for 8 h, day 11 for 24 h, and day 13 for 72 h combinations), mice were euthanized with carbon dioxide. Blood was collected by cardiac puncture. Catalyst analysis used an EQUINE-15 clip with an additional individual ALT assay added (Idexx, Westbrook, Mass.). Tissues collected included liver, kidney, spleen, heart, skeletal muscle (with skin attached). Tissues were fixed in 10% neutral buffered formalin ˜24 h, then stored in 70% ethanol. Tissues from mice in the highest-dose groups (all time points) as well as untreated and single-agent controls were shipped to Mass Histology Inc (Worcester, Mass.) for processing, and H&E staining of sectioned tissues. Received slides were scanned at 20X on the aperio bright field scanner.

[3] = system: Pancreatic PDX model #15010; experiment: Efficacy in pancreatic patient derived xenograft #15010 (PDX 15010-P5)
Procedure: (§1) Experiments were performed according to approved guidelines. CB.17 SCID mice were obtained from Roswell Park Cancer Institute, initially at 6-8 weeks of age. Per treatment group, 8 animals were treated, unless otherwise indicated. Tumor pieces were derived from donor mice and engrafted subcutaneously. Depending on the variability in tumor growth, animals were either randomized to the different arms at one specific timepoint or a rolling randomization was performed in which a subgroup of animals were randomized through a period of time to ensure less variability in starting sizes. Animals were randomized and dosing initiated when tumors reached an average volume of 200-250 mm^3 (range 100-400 mm^3), unless otherwise indicated.
(§2) For efficacy experiments, 46scFv-ILs-DTXp3 were generated as described in composition description.
(§3) Intravenous administration of the indicated doses of each agent was initiated when tumors reached an average volume of 200-250 mm^3 and continued for a total of four weekly doses. Tumor volumes were measured once to twice weekly during the dosing cycle and until tumors regrow or reaching maximum monitoring period of 120-160 days or animals were in poor general health and needed to be sacrificed. The tumor progression was monitored by palpation and caliper measurements of the tumors along the largest (length) and smallest (width) axis twice a week. The tumor sizes were determined twice weekly from the caliper measurements using the formula (Geran, R. I., et al., 1972 Cancer Chemother. Rep. 3:1-88):
(§4) Tumor volume (TV)=[(length)×(width)^2]/2
(§5) Single tumor volume curves for each animal were plotted and two metrics that describe antitumor effects were calculated as follows:
(§6) 1) Max Response=[(minimum TV−TV at day 0)/TV at day 0]×100
(§7) 2) Time to regrowth=Time for the tumor to reach four times its initial size
(§8) All statistical analysis between treatment groups was performed using JMP v11.0 software. For treatment group comparison, two-way ANOVA analysis was performed in conjunction with post hoc Tukey HSD statistical analysis.

#12424 PDX tumor model = experiment: Efficacy in pancreatic patient derived xenograft #12424 (PDX 12424-8P); conditions: for growth inhibition versus saline control: both dose levels (Gemcitabine 35 and 100 mg/kg; Oxaliplatin 5 and 10 mg/kg)
Procedure: as §1, §2
Intravenous administration of the indicated doses of each agent was initiated when tumors reached an average volume of 200-250 mm^3 and continued for a total of four weekly doses. Tumor volumes were measured once to twice weekly during the dosing cycle and until tumors regrow or reaching maximum monitoring period of 120-160 days or animals were in poor general health and needed to be sacrificed. The tumor progression was monitored by palpation and caliper measurements of the tumors along the largest (length) and smallest (width) axis twice a week.
as §4, §5, §6, §7, §8
Model #12424 was maintained by passaging tumor fragments in immunodeficient mice. This PDX model was at passage 8 for study #12424-8P.

PDX model #14244 = experiment: Efficacy in patient derived xenograft #14244 (PDX 14244-9P); conditions: for maximal tumor response to drug compared to control group: both dose levels
Procedure: The pancreatic xenograft model series are true xenotransplant models that were directly engrafted from patient tumor resections into SCID mice for propagation and maintained by transplantation of tumor fragments (Hylander et al., 2005, 2013). […] CB.17 SCID mice were obtained from Roswell Park Cancer Institute, initially at 6-8 weeks of age. Per treatment group, 8 animals were treated, unless otherwise indicated. Tumor pieces were derived from donor mice and engrafted subcutaneously. Depending on the variability in tumor growth, animals were either randomized to the different arms at one specific timepoint or a rolling randomization was performed in which a subgroup of animals were randomized through a period of time to ensure less variability in starting sizes. Animals were randomized and dosing initiated when tumors reached an average volume of 200-250 mm^3 (range 100-400 mm^3), unless otherwise indicated.
For efficacy experiments, 46scFv-ILs-DTXp3 were generated as described in composition description. […] MM-398 was generated in house using the final commercial process.
as §3, §4, §5, §6, §7, §8
Model #14244 was maintained by passaging tumor fragments in immunodeficient mice. This PDX model was at passage 9 for study #14244-9P.

Hydrolysis in buffer = format: physicochemical; conditions: 37° C.
Procedure: A volume of a 10 mg/mL solution of drug in DMSO as needed to provide the desired concentration (typically 16 μL to yield a 80 μg/mL solution) (see Table 1) is placed in a glass test tube or 4 mL vial. Additional DMSO may also be added (e.g. 64 μL when using 16 μL of drug solution) to yield a final total DMSO concentration of 4%. The DMSO solutions are mixed by brief vortexing, and then 2 mL (20 mM) HEPES buffer for pH 7.5 and 2 mL of (20 mM) phosphate buffer for pH 2.5 is added and the mixture is vortexed again. The initial pH may be adjusted by addition of HCl or NaOH.
Then 100 μL aliquots of the buffer solution of drug are transferred into HPLC vials and incubated in a 37° C. water bath. The remaining solution is also incubated at 37° C. in 4 mL vials for monitoring of pH.
At each time point 900 μL of 0.1% trifluoroacetic acid (TFA) in acetonitrile (ACN) is added to the HPLC vial and the contents are vortexed. The vials are then placed in an autosampler rack at 4° C. for HPLC analysis.
Time zero data points are typically obtained from a solution of 4 μL DMSO stock in 5 mL of 0.1% TFA/ACN (8 μg/mL).
HPLC analysis is performed on a SYNERGI 4 micron Polar RP-80A, 250×4.6 mm column, using a flow rate of 1 mL./min, a 50 μL injection volume, column temperature of 25° C. and with UV detection at 227 nm. Most compounds are analyzed using a 13 min gradient (Method A) from 30 to 66% acetonitrile in aqueous 0.1% TFA, followed by a 1 min gradient back to 30% and a hold at 30% for 6 minutes. If the retention time is too long for this method, a 20 min gradient (Method B) of 30 to 90% acetonitrile, followed by a 1 min return to 30% and held for 9 min at 30% is employed.
The extent of hydrolysis is reported in Table 4 below as the % PTX or DTX formation based on relative peak areas.

[4] = system: human ovarian patient derived model OVx-132; experiment: Combination with carboplatin in ovarian patient derived model OVx-132; format: in vivo, Immunodeficient mice; conditions: for growth arrest and tumor regression: docetaxel 5 mg/kg, 46scFv-ILs-DTXp3 25 mg/kg, carboplatin 60 mg/kg, combinations dosed 3 days apart, carboplatin first; for Time-to-tumor regrowth (TTR; time for tumor to double its volume): monitored 160 days
Procedure: Immunodeficient mice were implanted with human ovarian patient derived model OVx-132. Animals randomized into the following experimental groups: Saline, docetaxel at 5 mg/kg, 46scFv-ILs-DTXp3 at 25 mg/kg, carboplatin 60 mg/kg, carboplatin/docetaxel, and carboplatin/46scFv-ILs-DTXp3. For the combinations groups carboplatin/docetaxel and carboplatin/46scFv-ILs-DTXp3 doses used for the monotherapy arms were combined and dosed 3 days a part with carboplatin being dosed first followed by the docetaxel or 46scFv-ILs-DTXp3.
The animals received four tail vein injections, at the intervals of 7 days. Tumor size was monitored once to twice weekly.
Tumor volume(TV)=[(length)×(width)^2]/2
Maximum response was calculated using the following formula where TV is tumor volume:
Max tumor regression=[(TVmin−TVday0)/TVday0]×100
Maximum tumor regression was classified as complete tumor regression (100% regression with no palpable tumor), partial tumor regression (max tumor regression more than 30%) or no tumor regression.
Animals were monitored until tumor regrowth or end of monitoring period (>120 days). Time to regrowth was defined as time for tumor to double its volume. Animals sacrificed prior to tumor volume doubling are censored.

Procedure for PDX 14244-10P: CB.17 SCID mice were obtained from Roswell Park Cancer Institute, initially at 6-8 weeks of age. Per treatment group, 8 animals were treated, unless otherwise indicated. Tumor pieces were derived from donor mice and engrafted subcutaneously. Depending on the variability in tumor growth, animals were either randomized to the different arms at one specific timepoint or a rolling randomization was performed in which a subgroup of animals were randomized through a period of time to ensure less variability in starting sizes. Animals were randomized and dosing initiated when tumors reached an average volume of 200-250 mm^3 (range 100-400 mm^3), unless otherwise indicated.
Intravenous administration of the indicated doses of each agent was initiated when tumors reached an average volume of 200-250 mm^3 and continued for a total of four weekly doses. Tumor volumes were measured once to twice weekly during the dosing cycle and until tumors regrow or reaching maximum monitoring period of 120-160 days or animals were in poor general health and needed to be sacrificed. The tumor progression was monitored by palpation and caliper measurements of the tumors along the largest (length) and smallest (width) axis twice a week. The tumor sizes were determined twice weekly from the caliper measurements using the formula (Geran, R. I., et al., 1972 Cancer Chemother. Rep. 3:1-88): […]

SMILES: Nc1ccn([C@@H]2O[C@H](CO)[C@@H](O)C2(F)F)c(=O)n1 [Gemcitabine]
MTD [1]: around 240 mpk
time to regrowth: growth inhibition (PDX 14244-10P; 100 mg/kg): 21.9 days
maximal response to therapy (tumor response) (PDX 14244-10P; Gemcitabine monotherapy (100 mg/kg)): 42.11%
growth (body weight) ([2]; Gemcitabine 292 mg/kg, 72 h post-46scFv-ILs-DTXp3): least growth of the 292 mg/kg groups
ALT and AST ([2]; Gemcitabine 292 mg/kg, 72 h post-46scFv-ILs-DTXp3, study end): elevated ALT and AST at study end
histopathology: individual hepatocyte necrosis ([2]; highest-dose groups): increased incidence of individual hepatocyte necrosis (minimal to mild)
histopathology: extramedullary hematopoiesis in the spleen ([2]; highest-dose groups): Increased extramedullary hematopoieisis (EMH) in the spleen
toxicity (weight loss or catalyst enzyme profiling different than control mice) ([2]; mice, following an i.v. dose for 10 days, doses as high as 291.6 mg/kg): did not find toxicity
maximal response: decrease in tumor volume ([3]; 35 mg/kg): 27%
tumor growth inhibition relative to control (time to regrowth) ([3]; 35 mg/kg): 27 days
maximal response: decrease in tumor volume ([3]; 100 mg/kg): 37%
tumor growth inhibition relative to control (time to regrowth) ([3]; 100 mg/kg): 37 days
growth inhibition versus saline control (#12424 PDX tumor model): statistically insignificant from saline control
delay of regrowth compared to saline (time to regrowth) (PDX model #14244; 35 mg/kg): two
delay of regrowth compared to saline (time to regrowth) (PDX model #14244; 100 mg/kg): 18 days
maximal tumor response to drug compared to control group (PDX model #14244): did not demonstrate a significant tumor response to drug

SMILES: CCN(CC)CCCC(=O)O[C@@H](C(=O)O[C@H]1C[C@@]2(O)[C@@H](OC(=O)c3ccccc3)[C@@H]3[C@]4(OC(C)=O)CO[C@@H]4C[C@H](O)[C@@]3(C)C(=O)[C@H](O)C(=C1C)C2(C)C)[C@@H](NC(=O)OC(C)(C)C)c1ccccc1.Cl [Compound 3, 2′-O-(4-Diethylamino Butanoyl) DTX Hydrochloride]
Percentage of Hydrolysis (% DTX formation) (Hydrolysis in buffer; pH 2.5, 0 h): 0.00%
Percentage of Hydrolysis (% DTX formation) (Hydrolysis in buffer; pH 2.5, 5 h): 0.00%
Percentage of Hydrolysis (% DTX formation) (Hydrolysis in buffer; pH 2.5, 24 h): 0.00%
Percentage of Hydrolysis (% DTX formation) (Hydrolysis in buffer; pH 2.5, 48 h): 0.00%
Percentage of Hydrolysis (% DTX formation) (Hydrolysis in buffer; pH 2.5, 96 h): 0%
Percentage of Hydrolysis (% DTX formation) (Hydrolysis in buffer; pH 7.5, 0 h): 0.00%
Percentage of Hydrolysis (% DTX formation) (Hydrolysis in buffer; pH 7.5, 5 h): 45.76%
Percentage of Hydrolysis (% DTX formation) (Hydrolysis in buffer; pH 7.5, 24 h): 100.00%
Percentage of Hydrolysis (% DTX formation) (Hydrolysis in buffer; pH 7.5, 48 h): 100.00%
Percentage of Hydrolysis (% DTX formation) (Hydrolysis in buffer; pH 7.5, 96 h): 100%

SMILES: N.N.O=C([O-])C1(C(=O)[O-])CCC1.[Pt+2] [Carboplatin]
growth arrest and tumor regression [4]: minimal growth arrest and no tumor regression
Time-to-tumor regrowth (TTR; time for tumor to double its volume) [4]: minor delay on time to regrowth
weight loss in individual mice at day 6 ([2]; Carboplatin 84 mg/kg dosed 8 h or 24 h after 46scFv-ILs-DTXp3 100 mpk, regained weight by day 10-11): at most 10%
histopathology: individual hepatocyte necrosis ([2]; highest-dose groups): increased incidence of individual hepatocyte necrosis (minimal to mild)
histopathology: extramedullary hematopoiesis in the spleen ([2]; highest-dose groups): Increased extramedullary hematopoieisis (EMH) in the spleen
histopathology: mitotic rate in the liver ([2]; carboplatin treated groups, highest-dose groups): increase in mitotic rate in the liver

SMILES: O=C1[O][Pt]2([NH][C@@H]3CCCC[C@H]3[NH]2)[O]C1=O [Oxaliplatin]
tumor growth inhibition relative to control (time to regrowth) ([3]; 10 mg/kg): 30 days
maximal tumor response to drug versus saline control ([3]; both treatment doses): did not show a statistically significant difference from saline control
growth inhibition versus saline control (#12424 PDX tumor model): statistically insignificant from saline control
delay of regrowth over control group (time to regrowth) (PDX model #14244; 5 mg/kg): 2 days
delay of regrowth over control group (time to regrowth) (PDX model #14244; 10 mg/kg): 1 days
maximal tumor response to drug compared to control group (PDX model #14244): did not demonstrate a significant tumor response to drug

SMILES: CC(=O)O[C@@]12CO[C@@H]1C[C@H](O)[C@@]1(C)C(=O)[C@H](O)C3=C(C)[C@@H](OC(=O)[C@H](O)[C@@H](NC(=O)OC(C)(C)C)c4ccccc4)C[C@@](O)([C@@H](OC(=O)c4ccccc4)[C@H]21)C3(C)C [docetaxel]
growth arrest and tumor regression [4]: minimal growth arrest and no tumor regression
Time-to-tumor regrowth (TTR; time for tumor to double its volume) [4]: minor delay on time to regrowth

SMILES: O=c1[nH]cc(F)c(=O)[nH]1 [5-Fluorouracil]
inhibition of tumor growth compared to saline control (time to regrowth) (#12424 PDX tumor model; 50 mg/kg, four weekly IV doses): 12 days

Percentage of Hydrolysis (% DTX formation) (Hydrolysis in buffer; pH 2.5, 0 h): 0.00%
Percentage of Hydrolysis (% DTX formation) (Hydrolysis in buffer; pH 2.5, 5 h): 0.00%
Percentage of Hydrolysis (% DTX formation) (Hydrolysis in buffer; pH 2.5, 24 h): 0.00%
Percentage of Hydrolysis (% DTX formation) (Hydrolysis in buffer; pH 2.5, 48 h): 0.00%
Percentage of Hydrolysis (% DTX formation) (Hydrolysis in buffer; pH 2.5, 96 h): 0%
Percentage of Hydrolysis (% DTX formation) (Hydrolysis in buffer; pH 7.5, 0 h): 0.00%
Percentage of Hydrolysis (% DTX formation) (Hydrolysis in buffer; pH 7.5, 5 h): 76.07%
Percentage of Hydrolysis (% DTX formation) (Hydrolysis in buffer; pH 7.5, 24 h): 100.00%
Percentage of Hydrolysis (% DTX formation) (Hydrolysis in buffer; pH 7.5, 48 h): 100.00%
Percentage of Hydrolysis (% DTX formation) (Hydrolysis in buffer; pH 7.5, 96 h): 100%
SMILES: CC(=O)O[C@@]12CO[C@@H]1C[C@H](O)[C@@]1(C)C(=O)[C@H](O)C3=C(C)[C@@H](OC(=O)[C@H](OC(=O)CCCN(C)C)[C@@H](NC(=O)OC(C)(C)C)c4ccccc4)C[C@@](O)([C@@H](OC(=O)c4ccccc4)[C@H]21)C3(C)C.Cl [Compound 4]
